Values quoted from earlier work as cited in patent US20220387443A1, “RESPIRATORY SYNCYTIAL VIRUS FUSION PROTEIN INHIBITOR COMPOSITIONS AND METHODS FOR THE TREATMENT AND PROPHYLAXIS OF RSV DISEASES USING THE SAME” (priority 2019, published 2022).

Assays:
RSV infection = settings: selected infants, intramuscularly 15 mg/kg once a month for the duration of RSV season
RSV = settings: human RSV viral challenge studies

Row | Molecule | reduction of hospitalization rate caused by RSV infection (RSV infection) | reduction of viral load (RSV) [log 10]
1 | palivizumab: humanized monoclonal antibody against RSV fusion (F) protein | 45-55% | –
2 | Cc1cn2nc([C@@H]3CCCCN3C(=O)c3cc(Cl)ccc3NS(C)(=O)=O)cc2nc1N1CC[C@H](N)C1 [GS-5806] | – | 4.2
